1 compound from patent publication US6090958A, “Compounds and compositions for delivering active agents” (Emisphere Technologies, Inc., priority 1997, dated 2000) can be followed below.

For the series the following is noted: rat, in vivo, 50 mg/kg.

Protocol: An intracolonic dosing composition containing 50 mg/kg of carrier 9 and 250 μg/kg of interferon in 50% propylene glycol was prepared. Rats were administered the dosing composition by intracolonic instillation.
Rats were administered, orally and by intracolonic instillation, dosing solutions of 1 mg/kg of interferon and no carrier.

As for `O=C(O)CCCc1ccc(NC(=O)COc2ccccc2)cc1` [Compound 9], the “Mean peak serum interferon concentration” value is 2611±695.
